Measurements taken from ChEMBL document CHEMBL1153668, “3-Pyridines as replacements for an isoxazole ring: The antirhinoviral activity of pyridine analogues related to disoxaril” (Bioorg Med Chem Lett, 1995).
≈ marks a conversion by molar mass, not a printed value. Calls of active or inactive are those of the source. No cut-off for these calls is given here.

Key:
[1] = test system: Human rhinovirus sp.; experiment: Antirhinoviral activity against Human Rhinovirus serotypes R1A, R1B, R2, R6, R14, R15, R21, R22, R25, R30, R41, R50, R67, R86 and R89; Inactive against HRV-6, 14, 86; type: functional, organism-based
[2] = test system: Human rhinovirus sp.; experiment: Antirhinoviral activity against Human Rhinovirus serotypes R1A, R1B, R2, R6, R14, R15, R21, R22, R25, R30, R41, R50, R67, R86 and R89.; type: functional
[3] = Partition coefficient (logP); type: physicochemical; details: octanol/water
[4] = test system: Human rhinovirus sp.; experiment: Antirhinoviral activity against Human Rhinovirus serotypes R1A, R1B, R2, R6, R14, R15, R21, R22, R25, R30, R41, R50, R67, R86 and R89; type: functional
[5] = test system: Human rhinovirus sp.; experiment: Antirhinoviral activity against Human Rhinovirus R67; type: functional
[6] = test system: Human rhinovirus sp.; experiment: Antirhinoviral activity against Human Rhinovirus R6; type: functional
[7] = test system: Human rhinovirus sp.; experiment: Antirhinoviral activity against Human Rhinovirus R86; type: functional
[8] = test system: Human rhinovirus sp.; experiment: Antirhinoviral activity against Human Rhinovirus R25; type: functional
[9] = test system: Human rhinovirus sp.; experiment: Antirhinoviral activity against Human Rhinovirus R50; type: functional
[10] = test system: Human rhinovirus sp.; experiment: Antirhinoviral activity against Human Rhinovirus R1B; type: functional
[11] = test system: Human rhinovirus sp.; experiment: Antirhinoviral activity against Human Rhinovirus R21; type: functional
[12] = test system: Human rhinovirus sp.; experiment: Antirhinoviral activity against Human Rhinovirus R2; type: functional
[13] = test system: Human rhinovirus sp.; experiment: Antirhinoviral activity against Human Rhinovirus R15; type: functional
[14] = test system: Human rhinovirus sp.; experiment: Antirhinoviral activity against Human Rhinovirus R41; type: functional
[15] = test system: Human rhinovirus sp.; experiment: Antirhinoviral activity against Human Rhinovirus R89; type: functional
[16] = test system: Human rhinovirus sp.; experiment: Antirhinoviral activity against Human Rhinovirus R1A; type: functional
[17] = test system: Human rhinovirus sp.; experiment: Antirhinoviral activity against Human Rhinovirus R22; type: functional
[18] = test system: Human rhinovirus sp.; experiment: Antirhinoviral activity against Human Rhinovirus R30; type: functional
[19] = test system: Human rhinovirus sp.; experiment: Antirhinoviral activity against Human Rhinovirus R14; type: functional
[20] = test system: Human rhinovirus sp.; experiment: Antirhinoviral activity against Human Rhinovirus R14; Not active; type: functional, organism-based
[21] = test system: Human rhinovirus sp.; experiment: Antirhinoviral activity against Human Rhinovirus R41; Not active; type: functional, organism-based
[22] = test system: Human rhinovirus sp.; experiment: Antirhinoviral activity against Human Rhinovirus R6; Not active; type: functional, organism-based
[23] = test system: Human rhinovirus sp.; experiment: Antirhinoviral activity against Human Rhinovirus serotypes R1A, R1B, R2, R6, R14, R15, R21, R22, R25, R30, R41, R50, R67, R86 and R89; Inactive against HRV-86; type: functional, organism-based
[24] = test system: Human rhinovirus sp.; experiment: Antirhinoviral activity against Human Rhinovirus R86; Not active; type: functional, organism-based

Compound | Mean activity [2] | logP [3] | MIC [5] | MIC [7] | MIC [8] | MIC [9] | MIC [10] | MIC [11] | MIC [12] | MIC [13] | MIC [15] | MIC [16] | MIC [17] | MIC [18] | MIC [19] | also measured
Cc1cc(-c2nnn(C)n2)cc(C)c1OCCCc1cccnc1 |  |  |  |  |  |  |  |  |  |  |  |  |  |  |  | Mean activity [1]: inactive
Cc1ccc(CCCOc2c(C)cc(-c3nnn(C)n3)cc2C)cn1 | 0.54 µM |  |  |  |  |  |  |  |  |  |  |  |  |  |  | 
Cc1cc(CCCOc2c(C)cc(-c3nc(C)no3)cc2C)on1 |  | 3.2 |  |  |  |  |  |  |  |  |  |  |  |  |  | Mean activity [4]: 0.22 µM
Cc1cc(CCCCCOc2c(C)cc(-c3nnn(C)n3)cc2C)on1 |  |  | 0.35 µM (≈ 0.124 µg/mL) | 0.84 µM (≈ 0.299 µg/mL) | 0.31 µM (≈ 0.11 µg/mL) | 0.23 µM (≈ 0.0818 µg/mL) | 0.1 µM (≈ 0.0355 µg/mL) | 0.04 µM (≈ 0.0142 µg/mL) | 0.04 µM (≈ 0.0142 µg/mL) | 0.77 µM (≈ 0.274 µg/mL) | 0.04 µM (≈ 0.0142 µg/mL) | 0.42 µM (≈ 0.149 µg/mL) | 0.08 µM (≈ 0.0284 µg/mL) | 0.11 µM (≈ 0.0391 µg/mL) | 0.62 µM (≈ 0.22 µg/mL) | MIC [6]: 0.98 µM (≈ 0.348 µg/mL); MIC [14]: 1.43 µM (≈ 0.508 µg/mL)
Cc1cc(CCCOc2c(C)cc(-c3nnn(C)n3)cc2C)on1 | 0.73 µM |  |  |  |  |  |  |  |  |  |  |  |  |  |  | 
Cc1ccc(CCCOc2c(C)cc(-c3nc(C)no3)cc2C)cn1 | 0.25 µM | 3.8 |  |  |  |  |  |  |  |  |  |  |  |  |  | 
Cc1cc(-c2nnn(C)n2)cc(C)c1OCCCCCc1ccncc1 |  |  | 0.51 µM (≈ 0.179 µg/mL) | 0.43 µM (≈ 0.151 µg/mL) | 0.11 µM (≈ 0.0387 µg/mL) | 0.36 µM (≈ 0.127 µg/mL) | 0.27 µM (≈ 0.0949 µg/mL) | 0.08 µM (≈ 0.0281 µg/mL) | 0.26 µM (≈ 0.0914 µg/mL) | 2.13 µM (≈ 0.749 µg/mL) | 0.07 µM (≈ 0.0246 µg/mL) | 0.68 µM (≈ 0.239 µg/mL) | 0.2 µM (≈ 0.0703 µg/mL) | 0.36 µM (≈ 0.127 µg/mL) |  | MIC [20]: inactive; MIC [21]: inactive; MIC [22]: inactive
Cc1noc(-c2cc(C)c(OCCCc3cccnc3)c(C)c2)n1 |  | 3.3 |  |  |  |  |  |  |  |  |  |  |  |  |  | Mean activity [23]: inactive
Cc1cc(-c2nnn(C)n2)cc(C)c1OCCCCCc1cccnc1 |  |  | 0.37 µM (≈ 0.13 µg/mL) | 1.08 µM (≈ 0.38 µg/mL) | 0.04 µM (≈ 0.0141 µg/mL) | 2.28 µM (≈ 0.801 µg/mL) | 0.1 µM (≈ 0.0351 µg/mL) | 0.03 µM (≈ 0.0105 µg/mL) | 0.2 µM (≈ 0.0703 µg/mL) | 1.25 µM (≈ 0.439 µg/mL) | 0.03 µM (≈ 0.0105 µg/mL) | 0.28 µM (≈ 0.0984 µg/mL) | 0.17 µM (≈ 0.0597 µg/mL) | 0.17 µM (≈ 0.0597 µg/mL) | 1.05 µM (≈ 0.369 µg/mL) | MIC [6]: 0.82 µM (≈ 0.288 µg/mL); MIC [14]: 2.16 µM (≈ 0.759 µg/mL)
Cc1cc(-c2nnn(C)n2)cc(C)c1OCCCCCc1ccccn1 |  |  | 1.19 µM (≈ 0.418 µg/mL) |  | 0.08 µM (≈ 0.0281 µg/mL) | 0.36 µM (≈ 0.127 µg/mL) | 0.11 µM (≈ 0.0387 µg/mL) | 0.05 µM (≈ 0.0176 µg/mL) | 0.34 µM (≈ 0.119 µg/mL) | 1.91 µM (≈ 0.671 µg/mL) | 0.06 µM (≈ 0.0211 µg/mL) | 0.66 µM (≈ 0.232 µg/mL) | 0.21 µM (≈ 0.0738 µg/mL) | 0.25 µM (≈ 0.0879 µg/mL) | 3.84 µM (≈ 1.35 µg/mL) | MIC [24]: inactive; MIC [21]: inactive; MIC [22]: inactive
